Reference: patent US20250144247A1, “FORMULATIONS TO ENHANCE THE DELIVERY OF GENE THERAPY VECTORS” (priority 2023, published 2025)
Like-named read-outs stand apart in the source and are kept apart here.

How the values were obtained:
[1] = tested on: human airway epithelial cells (HAE); experiment: Transepithelial electrical resistance (TEER) of HAE after apical reagent; type: cell-based; settings: apical 5 minutes; LPC 0.1%, EGTA 250 mM, doxorubicin 5 μM, NaCl 3.6%, Infasurf 35 mg/ml
Description: The University of Iowa In Vitro Models and Cell Culture Core cultured and maintained human airway epithelial cells (HAE) as previously described (33). Briefly, following enzymatic disassociation of trachea and bronchus epithelia, the cells were seeded onto collagen-coated, polycarbonate transwell inserts (0.4 μm pore size; surface area=0.33 cm^2; Corning Costar, Cambridge, MA). HAE were submerged in Ultroser G (USG) medium for 24 hours (37° C. and 5% CO2) at which point the apical media is removed to encourage polarization and differentiation at an air-liquid interface. Transepithelial electrical resistance was measured using an Ohmmeter […]
Disrupting the epithelial tight junctions allows Ad5-based viral vectors access to their basolaterally localized coxsackie and adenovirus receptor (CXADR) (12). Unless otherwise specified, these studies use the Ad5 serotype. […] First, reagents were applied to the apical surface of HAE for 5 minutes and then TEER was measured using an ohmmeter. […] In separate cultures, Ad-GFP (MOI=250) in 50 μl of DMEM combined 1:1 with the test reagents was applied to the apical surface for 2 hours. 5 days post-treatment, cells were imaged by fluorescence microscopy.

[2] = tested on: human airway epithelial cells (HAE); type: cell-based; settings: for Ad gene transfer: imaged 5 days
[3] = tested on: human airway epithelial cells (HAE); experiment: LDH release / integrity of HAE; type: cell-based
Description: GFP images were acquired using a Keyence All-in-one Fluorescence Microscope BZ-X series (Osaka, Japan). 0.33 cm^2 Transwells were imaged at 2× magnification. GFP expression was quantified by flow cytometry as previously reported (36). Briefly, cells were stained with a fixable LIVE/DEAD stain (Thermo Fisher Scientific, Waltham, MA, USA), lifted in Accutase at 37° C. for 30 minutes, and run through an Attune NxT Flow Cytometer (Thermo Fisher Scientific, Waltham, MA, USA). Cells were treated with the Foxp3/Transcription Factor Staining Buffer Set (Thermo Fisher Scientific, Waltham, MA, USA) according to manufacturer's recommendations and stained for 1 hour at 37° C. with the following antibodies: NGFR (345110; 1:600, BioLegend, San Diego, CA, USA), α-tubulin (NB100-69AF405, 1:300, Novus, Centennial, CO, USA) and CD66c (12-0667-42, 1:600, Invitrogen, Waltham, MA). Expression was gated on live cells. Immunofluorescence staining of pig tissue sections was performed using acetylated α-tubulin (D20G3, 1:200, Cell Signaling Technology, Danvers, MA) or cytokeratin 5 (CK5) (Polyl9055, 1:500, San Diego, CA). Primary antibodies were detected using a goat anti-rabbit Alexa 546 secondary anti-body (A-11035, 1:600, Thermo Fisher Scientific, Waltham, MA).
LDH release was quantified according to the manufacturer's recommendations (LDH-Glo Cytotoxicity Assay, Promega, Madison, WI). Briefly, basolateral media from each condition was collected in a 96 well plate. The LDH detection reagents were mixed in a 1:1 ratio and applied to each well and incubated for 30 minutes. Luminescence was recorded using a SpectraMax i3x plate reader.

[4] = tested on: CFTR anion transport in CF HAE; experiment: Ussing chamber short circuit current and conductance of CF HAE; type: cell-based, human
measles virus (MeV) = experiment: Measles virus (MeV) infection of HAE; type: cell-based, human; settings: wild-type MeV, NaCl (4%)
Description: […] After infection, virus inoculums removed. […] After infection, basolateral-infected cultures were returned upright. All MeV infections took place for 4 hours in 37° C. at an MOI of 1 with a total inoculum of 50 μL.

[5] = tested on: human airway epithelial cells (HAE); experiment: AAV2.5T-GFP transduction of HAE; type: cell-based; settings: NaCl 4.5%, MOI=100,000 vg/cell, 2 hours, doxorubicin 1 μM pre-treatment, 2 weeks
[6] = tested on: newborn pig tracheal explants; experiment: Pig tracheal explant transduction ex vivo; settings: NaCl 5%, apical 2 hours
Description: 0.25 cm^2 tracheal explants from newborn pigs were cultured on Surgifoam (1972, Ethicon, Raritan, NJ) for 3-5 days prior to transduction. Ad5-mcherry (1×10^9 TU), AAVH22-GFP (2×10^10 vg), and GP64 HIV-GFP (1.75×10^7 TU) were applied with or without NaCl (5%) to the apical surface of the trachea by inverting the trachea onto a tissue culture dish containing the viral solution for 2 hours then returned to an upright position on Surgifoam. 5 days post-transduction, tracheal explants were mounted on a microscope slide and imaged for fluorescent expression using confocal microscopy. Expression was quantified using Image J (FIJI) by measuring fluorescence intensity per high power field.
Using freshly excised newborn pig tracheal explants maintained on Surgifoam, Ad-GFP or AAVH22-GFP (a pig-tropic AA V capsid)±NaCl (5%) was applied to the apical surface by inverting the tissue in a culture dish for 2 hours. One week later, tissues were fixed and imaged by confocal microscopy. […] Fluorescence was quantified by transduction area per high power field.

pig airways = experiment: Viral gene transfer in pig airways; type: in vivo, newborn pigs
Description: Newborn pigs were sedated using isoflurane and viral vector formulated with NaCl (0.9% or 5% final) and acrosolized 2 ml intratracheally using a MADgic Laryngo-Tracheal Mucosal Atomization Device (Teleflex, Morrisville, NC). Doses for each vector for each pig were as follows: 2.8×10^10 infectious genomic units (IGU) of helper-dependent Ad-CMV-GFP and 7×10^8 TU of GP64 HIV-CMV-GFP. Doses were prepared by mixing a 1.8% NaCl or 10% NaCl stock 1:1 with 1 ml of vector. 1 week later, pigs were humanely euthanized, and lungs were analyzed for GFP expression. Lungs were systematically divided and fixed in 4% paraformaldehyde, subjected to a sucrose gradient, and embedded in OCT for cryosectioning. Sectioned lung slides were mounted using DAPI and imaged using a Keyence All-in-one Fluorescence Microscope BZ-X series (Osaka, Japan).
To determine cell types transduced in vivo, a pig model that more closely recapitulates the anatomy and cell biology of human airways was used. Newborn pigs received Ad-GFP via intratracheal delivery with 0.9% NaCl or 5% NaCl. Five days after delivery, lungs were collected and GFP expression was visualized under a fluorescence dissecting microscope (data not shown). Lungs were divided into 20 regions for systematic quantification as previously described (data not shown) and scored based on level of expression (0=no expression, 1=low expression, 2=moderate expression, and 3=high expression) (data not shown).

[7] = tested on: cultured cells on plastic; experiment: Gene transfer of cultured cells on plastic with hypertonic saline; type: cell-based
[8] = tested on: human airway epithelial cells (HAE); experiment: Scanning electron microscopy of HAE surface; settings: NaCl 3.6% for 2 hours vs no NaCl control

For `[Cl-].[Na+]` [NaCl, sodium chloride], the “transepithelial electrical resistance (TEER)” value [1] was “decreased TEER”, the Ad gene transfer ([2]; 0.9% NaCl (PBS), Ad-GFP MOI=250, apical 2 hours) was “did not enhance Ad gene transfer” and the “transduction of basal, secretory and ciliated cells” value ([2]; 1-7% NaCl, Ad-GFP MOI=250) was “all transduced in a dose dependent manner”. For the same compound, the “Ad-GFP transduction efficiency, comparison of osmolytes” value ([2]; 3.6% NaCl vs 3.6% NaGluconate, 3.6% KCl, 0.9% NaCl, 0.9% NaCl + mannitol, 2 h, 5 days) was “greatest increase in transduction efficiency”, the Ad gene transfer ([2]; Ad-GFP MOI=250 combined 1:1 with reagent, apical 2 hours, LPC 0.1%, EGTA 250 mM, doxorubicin 5 μM, NaCl 3.6%, Infasurf) was “conferred remarkable transduction” and the “co-treatment time giving maximal expression” value ([2]; Ad-GFP with NaCl 3.6%) was 2 h. For the same compound, the “% GFP+ cells across pH range” value ([2]; NaCl 3.6% adjusted to pH 5, 6, 7, 7.4 and 8, Ad-GFP) was “no significant differences”, the “% GFP+ cells versus length of exposure” value ([2]; NaCl 3.6% or Ad-GFP for 5, 15, 30, 60 or 120 min) was “increased incrementally with increasing temporal exposure” and the “Ad transduction efficiency (% GFP+ cells)” value ([2]; dose response 1-7% NaCl final, Ad-GFP MOI=250) was “dose dependent increase in transduction efficiency”. The “benefit on Ad transduction” value ([2]; ≤3% NaCl) was “little benefit on transduction”, the “effects on HAE integrity in vitro” value ([3]; 5% NaCl formulation) was “negative effects on HAE integrity” and the LDH release ([3]; highest concentrations of NaCl (5-7%)) was “increased LDH release”. The “NaCl doses with ultimate toxicity” value ([3]; in vitro HAE) was greater than 6%, the “Cl− secretion (short circuit current and conductance, F&I and GlyH)” value ([4]; CF HAE, Ad-CFTR (MOI=250) and NaCl 3.6%, apical 2 hours, 5 days) was “wild-type levels of Cl^− secretion” and the “anion channel activity responses to F&I and GlyH” value ([4]; CF airway cultures, AAV2.5T-CFTR with NaCl 4.5%, 2 weeks) was “increased anion channel activity responses”. For the same compound, the CFTR-dependent anion transport ([4]; primary CF HAE, GP64 HIV-CFTR (MOI=50) in the presence of NaCl 4.5%) was “restored the CFTR-dependent anion transport”, the “MeV infection following apical application” value (measles virus (MeV)) was “occurred only in the presence of NaCl” and the “GFP expression, AAV-GFP (AAV2.5T)” value [5] was “significantly higher GFP expression”. The “transduction with Ad and AAVH22 (fluorescence per high power field)” value [6] was “markedly enhanced”, the “GFP+ score (0-3, 20 lung regions)” value (pig airways; Ad-GFP intratracheal, NaCl 5% vs 0.9%, five days) was “significantly increased” and the “transduction of ciliated cells and CK5+ basal cells” value (pig airways; Ad-GFP, 5% NaCl) was “transduction of ciliated cells was observed”. For the same compound, the “transduction of submucosal glands” value (pig airways; Ad-GFP, 5% NaCl) was “high levels of transduction”, the “transduction of large (>500 μm^2) and small (<500 μm^2) airways” value (pig airways; Ad-GFP, 5% NaCl vs 0.9% NaCl) was “significantly more airway transduction” and the “transduction by GP64 HIV-GFP” value (pig airways; NaCl 5% vs 0.9% NaCl) was “significantly enhanced transduction”. The “effect on cultured cells on plastic” value [7] was “lifting of the cells” and the “cell surface integrity and ciliation by SEM” value [8] was “no overt physical differences”.
